For the experiment, the system named is Arabidopsis thaliana Landsberg erecta strain DW150-307. Description: Growth and glycoprotein glycosylation in GUS-containing plants. In kind it is in vivo. The following applies: for carbohydrate patterns of glycoproteins compared with control seeds: ANTS and 1,5-EDANS labeling, HPLC and PAGE; for decrease in number of inflorescence stems (average) / plant growth: M0809 22 mg/L or M0872 25 mg/L in MS agar medium. The method, then:
Arabidopsis thaliana Landsberg erecta strain DW150-307 plants were propagated from seeds. Seeds were surface-sterilized with 70% ethanol (30 seconds) and 2% sodium hypochlorite (15 minutes), and then placed on a plant hormone-free MS agar medium. After incubation at 4° C. for 2 days, the seeds were cultured at 25° C. for one week while the daylight hours were kept to be 16 hours. The cotyledons were taken from the obtained sterile seedlings and then placed on an MS agar medium containing either deoxynojirimycin b-D-glucuronide methyl ester (M0809) (22 mg/L) or deoxymannonojirimycin b-D-glucuronidetriacetate, methyl ester (M0872) (25 mg/L) (regeneration medium in 9 cm Petri dish), and cultured under the same conditions as those described above for 6 days. Plants were transplanted into fresh media containing the same concentrations of M0809 or M0872 as above, and growth continued for an additional 19 days, until full seed pods were obtained. Plants grew normally on media containing the M0809 or M0872, except that the number of inflorescence stems was decreased (an average of 50%) in the treated plant specimens. Seed pods, floral and stem tissues from these plants were harvested, and seeds dried briefly in vacuo (10 mm Hg, 1 hour). Seeds were crushed, and carbohydrate content of all tissues analyzed using the ANTS and 1,5-EDANS labeling systems, followed by HPLC analysis and PAGE electrophoretic analysis.

SMILES strings stand for the structures.

We go through two molecules from patent publication US8716558B2, “Method of altering glycosylation of proteins in response to nojirimycin glucuronide in a plant cell expressing glucuronidase” (Marker Gene Technologies, Inc., priority 1999, dated 2014).

With `COC(=O)C1OC(OCC2NCC(O)C(O)C2O)C(O)C(O)C1O` [Example M0809, deoxynojirimycin b-D-glucuronide methyl ester], the “carbohydrate patterns of glycoproteins compared with control seeds” value is reported as “modified in structure”, the “decrease in number of inflorescence stems (average)” value was determined as 50% and the plant growth result is reported as “grew normally”.
Take `COC(=O)C1OC(OCC2NCC(O)C(O)C2O)C(OC(C)=O)C(OC(C)=O)C1OC(C)=O` [Example M0872, deoxymannonojirimycin b-D-glucuronidetriacetate, methyl ester]: the “carbohydrate patterns of glycoproteins compared with control seeds” value is reported as “modified in structure”, the “decrease in number of inflorescence stems (average)” value came out at 50% and the plant growth entry is “grew normally”.
